In patent US7322965B2, “Infection-resistant medical devices” (priority 2002, dated 2008):
Converted amounts (≈) assume the structure as drawn. Like-named read-outs stand apart in the source and are kept apart here. Marks after values point to notes of the source that are not given here.

Tests used:
S. epidermidis UC-20208 = assay: Determination of minimum inhibitory concentration (microdilution); assay type: cell-based; details: Staphylococcus epidermidis, read-out: MIC (minimum inhibitory concentration)
S. hominis SP2 = assay: Microtiter-plate adherence assay on polystyrene, nonadherent reference strain; assay type: cell-based; details: data not shown
Method: Briefly, the inoculum was established by the direct colony suspension method using the Prompt™ Inoculation System (Becton Dickinson, Sparks, Md.). The bacteria suspension, which was equal to the turbidity of a 0.5 McFarland standard, was diluted in TSB to a concentration of 1×10^6 colony forming units per ml (CFU/mL). One hundred microliters of the cell suspension was added to flat-bottom polystyrene wells (Corning Costar, Corning, N.Y.) containing 100 μl of TSB, with and without drug. The final inoculum concentration per well was approximately 5×10^5 CFU/mL. The plates were incubated at 37° C. under static conditions in air. At 18 hours (h) post-infection, the optical density of bacterial growth was measured at a wavelength of 595 nm in a microtiter plate reader (Vmax; Molecular Devices, Sunnyvale, Calif.). […] The optical density of bacterial adherence was determined at a wavelength of 550 nm. […] To compensate for background absorbance, optical density readings from wells treated with sterile medium, fixative and stain as described above were averaged and then subtracted from all test and control wells. […]
Reliability of the microtiter-plate adherence assay was assessed with the reference strains S. hominis SP2 (nonadherent) and S. epidermidis RP62A (strongly adherent). The median optical density readings for SP2 and RP62A were 0.059±0.004 and 2.789±0.266, respectively. […]

S. aureus UC-20205 = assay: Determination of minimum inhibitory concentration (microdilution); assay type: cell-based; details: Staphylococcus aureus, UC20205, 18 h
S. epidermidis RP62A [1] = assay: as above; assay type: cell-based; details: Staphylococcus epidermidis, 18 h, read-out: MIC (minimum inhibitory concentration)
S. epidermidis RP62A [2] = assay: Microtiter-plate adherence assay on polystyrene; assay type: cell-based; details: 18 h; for Adherence Mean OD550: S. epidermidis RP62A; for inhibition at 0.5 µg/mL / inhibition at 1 µg/mL / inhibition at 2 µg/mL: Staphylococcus epidermidis, RP62A, read-out: Adherence % Inhibition
Method: (§1) Briefly, the inoculum was established by the direct colony suspension method using the Prompt™ Inoculation System (Becton Dickinson, Sparks, Md.). The bacteria suspension, which was equal to the turbidity of a 0.5 McFarland standard, was diluted in TSB to a concentration of 1×10^6 colony forming units per ml (CFU/mL). One hundred microliters of the cell suspension was added to flat-bottom polystyrene wells (Corning Costar, Corning, N.Y.) containing 100 μl of TSB, with and without drug. The final inoculum concentration per well was approximately 5×10^5 CFU/mL. The plates were incubated at 37° C. under static conditions in air. At 18 hours (h) post-infection, the optical density of bacterial growth was measured at a wavelength of 595 nm in a microtiter plate reader (Vmax; Molecular Devices, Sunnyvale, Calif.). […] Adherent “sessile” cells then were fixed with 3.7% (v/v) formaldehyde/2% (w/v) sodium acetate and stained with 0.1% (w/v) crystal violet. Excess stain was rinsed off with deionized water and the plates were air-dried for 4 h. The optical density of bacterial adherence was determined at a wavelength of 550 nm. […] To compensate for background absorbance, optical density readings from wells treated with sterile medium, fixative and stain as described above were averaged and then subtracted from all test and control wells. Relative inhibition of adherence or growth was expressed by the following equation: (OD of control well−OD of treated well/OD of control well)×100, where OD is the mean optical density of six replicate wells from two separate experiments (three replicates per experiment). Control was defined as infected, drug-free cultures.
(§2) The primary efficacy variable in this study was the measurement of adherent bacterial cells to polystyrene after 18 h of growth. To determine whether statistically significant differences existed between treatment groups (MIC, ½ MIC, and ¼ MIC) compared with the infected-nontreated controls, the Kruskal-Wallis one-way analysis of variance (ANOVA) was applied for each clinical strain. Statistical significance was defined as p-values ≦0.05. An asterisk (*) was placed by all test values less than or equal to the specified significance level.

S. epidermidis UC-20207 = assay: Microtiter-plate adherence assay on polystyrene; assay type: cell-based; details: for Adherence Mean OD550: S. epidermidis UC-20207, 18 h; for inhibition at 0.5 µg/mL / inhibition at 1 µg/mL / inhibition at 2 µg/mL: Staphylococcus epidermidis, UC20207, 18 h, read-out: Adherence % Inhibition
Method: as §1, §2

bacterial adherence = details: subinhibitory concentrations; other investigators; cited from earlier work

SMILES | MIC (S. epidermidis UC-20208; UC20208, S. epidermidis UC-20208, 18 h) [µg/mL] | promotion of adherence of the nonadherent strain (S. hominis SP2) | MIC (S. aureus UC-20205) [µg/mL] | MIC (S. epidermidis RP62A [1]; S. epidermidis RP62A) [µg/mL] | Adherence Mean OD550 (S. epidermidis RP62A [2]; drug 0.5 μg/ml) | Adherence Mean OD550 (S. epidermidis RP62A [2]; drug 1.0 μg/ml) | Adherence Mean OD550 (S. epidermidis RP62A [2]; drug 2.0 μg/ml (MIC)) | inhibition at 0.5 µg/mL (S. epidermidis RP62A [2]) [%] | inhibition at 1 µg/mL (S. epidermidis RP62A [2]) [%] | inhibition at 2 µg/mL (S. epidermidis RP62A [2]) [%] | Adherence Mean OD550 (S. epidermidis UC-20207; drug 0.5 μg/ml) | Adherence Mean OD550 (S. epidermidis UC-20207; drug 1.0 μg/ml) | Adherence Mean OD550 (S. epidermidis UC-20207; drug 2.0 μg/ml (MIC)) | inhibition at 0.5 µg/mL (S. epidermidis UC-20207) [%] | inhibition at 1 µg/mL (S. epidermidis UC-20207) [%] | inhibition at 2 µg/mL (S. epidermidis UC-20207) [%] | MIC (S. epidermidis UC-20208; UC20208, 18 h) [µg/mL] | activity against bacterial adherence (bacterial adherence) | MIC (S. epidermidis RP62A [1]; RP62A) [µg/mL]
CC(=O)NC[C@H]1CN(c2ccc(N3CCOCC3)c(F)c2)C(=O)O1 [Linezolid, (S)-N-[[3-[3-fluoro-4-(4-morpholinyl)phenyl]-2-oxo-5-oxazolidinyl]methyl]acetamide] | 2 (≈ 5.93 µM) | Neither linezolid nor vancomycin promoted adherence | 2 (≈ 5.93 µM) | 2 (≈ 5.93 µM) | 0.125 ± 0.133* | 0.002 ± 0.002* | 0.001 ± 0.001* | 95.5 | 99.9 | 100 | 0.513 ± 0.227* | 0.007 ± 0.002* | 0.010 ± 0.005* | 76.9 | 99.7 | 99.5 |  |  | 
CN[C@H](CC(C)C)C(=O)N[C@H]1C(=O)N[C@@H](CC(N)=O)C(=O)N[C@H]2C(=O)N[C@H]3C(=O)N[C@H](C(=O)N[C@H](C(=O)O)c4cc(O)cc(O)c4-c4cc3ccc4O)[C@H](O)c3ccc(c(Cl)c3)Oc3cc2cc(c3O[C@@H]2O[C@H](CO)[C@@H](O)[C@H](O)[C@H]2O[C@H]2C[C@](C)(N)[C@H](O)[C@H](C)O2)Oc2ccc(cc2Cl)[C@H]1O [Vancomycin] |  | Neither linezolid nor vancomycin promoted adherence |  |  |  | 1.728 ± 0.952 | 0.000 ± 0.002* | 0 | 36.6 | 100 | 2.177 ± 0.424 |  | 0.001 ± 0.002* | 0 | 0 | 100 | 2 (≈ 1.38 µM) | minimal or no activity against bacterial adherence | 2 (≈ 1.38 µM)
